Reference: the NIST ThermoML archive (doi:10.1016/j.jct.2019.07.011)

Experiment: xn = mol fraction of the nth substance listed
Conditions: Gas, Frequency=0.002 MHz, Spherical resonator

[He] [helium] + C
Conditions	speed of sound [m/s]
273.16 K, 491.07 kPa, x2 = 0.8999	449.8
273.16 K, 495.33 kPa, x2 = 0.95	438.87
273.16 K, 993.4 kPa, x2 = 0.8999	448.5
273.16 K, 1010.2 kPa, x2 = 0.95	437.11
273.16 K, 1705.3 kPa, x2 = 0.8999	446.82
273.16 K, 2010.6 kPa, x2 = 0.95	433.9
273.16 K, 2484.9 kPa, x2 = 0.8999	445.25
273.16 K, 2988.8 kPa, x2 = 0.95	431.21
273.16 K, 3490.4 kPa, x2 = 0.8999	443.67
273.16 K, 4423.3 kPa, x2 = 0.95	428.28
273.16 K, 4498.4 kPa, x2 = 0.8999	442.69
273.16 K, 5505.7 kPa, x2 = 0.8999	442.38
273.16 K, 5984.1 kPa, x2 = 0.95	426.79
273.16 K, 6475.9 kPa, x2 = 0.95	426.75
273.16 K, 6493 kPa, x2 = 0.8999	442.8
273.16 K, 6972.4 kPa, x2 = 0.95	426.96
273.16 K, 7508.1 kPa, x2 = 0.8999	444.07
273.16 K, 7524.3 kPa, x2 = 0.95	427.48
273.16 K, 8481.6 kPa, x2 = 0.8999	446.2
273.16 K, 8589.5 kPa, x2 = 0.95	429.44
273.16 K, 9521.1 kPa, x2 = 0.8999	449.34
273.16 K, 9523.8 kPa, x2 = 0.95	432.26
273.16 K, 10522 kPa, x2 = 0.8999	453.42
273.16 K, 10523 kPa, x2 = 0.95	436.5
273.16 K, 11506 kPa, x2 = 0.95	441.94
273.16 K, 11530 kPa, x2 = 0.8999	458.54
273.16 K, 12532 kPa, x2 = 0.95	449.01
273.16 K, 12638 kPa, x2 = 0.8999	465.33
273.16 K, 13317 kPa, x2 = 0.95	455.32
273.16 K, 13633 kPa, x2 = 0.8999	472.45
273.16 K, 14040 kPa, x2 = 0.95	461.81
273.16 K, 14537 kPa, x2 = 0.8999	479.7
273.16 K, 14722 kPa, x2 = 0.95	468.48
273.16 K, 15299 kPa, x2 = 0.95	474.53
273.16 K, 15351 kPa, x2 = 0.8999	486.78
273.16 K, 15853 kPa, x2 = 0.95	480.65
273.16 K, 16041 kPa, x2 = 0.8999	493.25
273.16 K, 16516 kPa, x2 = 0.95	488.34
273.16 K, 16537 kPa, x2 = 0.8999	498.12
273.16 K, 17032 kPa, x2 = 0.95	494.58
273.16 K, 17048 kPa, x2 = 0.8999	503.31
273.16 K, 17533 kPa, x2 = 0.95	500.83
273.16 K, 17548 kPa, x2 = 0.8999	508.55
273.16 K, 18009 kPa, x2 = 0.95	506.92
273.16 K, 18059 kPa, x2 = 0.8999	514.05
273.16 K, 18537 kPa, x2 = 0.8999	519.32
273.16 K, 18552 kPa, x2 = 0.95	514.01
273.16 K, 19088 kPa, x2 = 0.95	521.16
273.16 K, 19117 kPa, x2 = 0.8999	525.88
273.16 K, 19871 kPa, x2 = 0.95	531.76
300 K, 482.33 kPa, x2 = 0.8999	469.85
300 K, 483.64 kPa, x2 = 0.95	458.75
300 K, 985.69 kPa, x2 = 0.95	457.69
300 K, 1001 kPa, x2 = 0.8999	469.18
300 K, 1985.5 kPa, x2 = 0.8999	468.06
300 K, 1996 kPa, x2 = 0.95	455.8
300 K, 2984.6 kPa, x2 = 0.8999	467.34
300 K, 3212.7 kPa, x2 = 0.95	454.1
300 K, 4475.2 kPa, x2 = 0.95	453.09
300 K, 4487.3 kPa, x2 = 0.8999	467.1
300 K, 5490.1 kPa, x2 = 0.8999	467.58
300 K, 5513.3 kPa, x2 = 0.95	452.95
300 K, 6460.8 kPa, x2 = 0.95	453.38
300 K, 6494.8 kPa, x2 = 0.8999	468.59
300 K, 7011.9 kPa, x2 = 0.95	453.9
300 K, 7501.4 kPa, x2 = 0.8999	470.2
300 K, 7543 kPa, x2 = 0.95	454.6
300 K, 8430.8 kPa, x2 = 0.95	456.23
300 K, 9026.4 kPa, x2 = 0.8999	473.76
300 K, 9344.2 kPa, x2 = 0.95	458.51
300 K, 10504 kPa, x2 = 0.8999	478.72
300 K, 10534 kPa, x2 = 0.95	462.72
300 K, 11500 kPa, x2 = 0.95	466.77
300 K, 11505 kPa, x2 = 0.8999	482.86
300 K, 12492 kPa, x2 = 0.8999	487.56
300 K, 12507 kPa, x2 = 0.95	471.79
300 K, 13305 kPa, x2 = 0.95	476.35
300 K, 13505 kPa, x2 = 0.8999	493.08
300 K, 13998 kPa, x2 = 0.95	480.72
300 K, 14495 kPa, x2 = 0.8999	499.05
300 K, 14699 kPa, x2 = 0.95	485.51
300 K, 15302 kPa, x2 = 0.95	489.92
300 K, 15515 kPa, x2 = 0.8999	505.8
300 K, 15902 kPa, x2 = 0.95	494.56
300 K, 16490 kPa, x2 = 0.8999	512.81
300 K, 16491 kPa, x2 = 0.95	499.36
300 K, 16994 kPa, x2 = 0.8999	516.63
300 K, 17005 kPa, x2 = 0.95	503.74
300 K, 17511 kPa, x2 = 0.8999	520.69
300 K, 17525 kPa, x2 = 0.95	508.33
300 K, 18012 kPa, x2 = 0.8999	524.75
300 K, 18013 kPa, x2 = 0.95	512.78
300 K, 18515 kPa, x2 = 0.95	517.49
300 K, 18523 kPa, x2 = 0.8999	529
300 K, 19011 kPa, x2 = 0.95	522.29
300 K, 19043 kPa, x2 = 0.8999	533.45
300 K, 19447 kPa, x2 = 0.95	526.6
300 K, 19955 kPa, x2 = 0.8999	541.5
325 K, 473.9 kPa, x2 = 0.8999	487
325 K, 479.57 kPa, x2 = 0.95	476.04
325 K, 976.85 kPa, x2 = 0.8999	486.84
325 K, 979.32 kPa, x2 = 0.95	475.45
325 K, 1477.5 kPa, x2 = 0.8999	486.66
325 K, 1677.4 kPa, x2 = 0.95	474.76
325 K, 2455.5 kPa, x2 = 0.95	474.19
325 K, 2481.6 kPa, x2 = 0.8999	486.49
325 K, 3481.4 kPa, x2 = 0.95	473.83
325 K, 3486.4 kPa, x2 = 0.8999	486.7
325 K, 4485.5 kPa, x2 = 0.8999	487.28
325 K, 4486.1 kPa, x2 = 0.95	473.85
325 K, 5487.2 kPa, x2 = 0.8999	488.28
